{
  "source": "patent US7582601B2",
  "about": "“Use of tryptophan rich peptides” (Campina B.V., priority 2003, dated 2009)",
  "system": "cholecystokinin (CCK) level in plasma",
  "assay": "Plasma CCK levels in human volunteers after ingestion of test substance in orange juice (RIA)",
  "assay_type": "in vivo",
  "settings": "healthy fasted human volunteers, n = 8",
  "description": "The experiment described below was performed in a double-blind, four period, randomised, cross-over, placebo controlled study.\nEight healthy human volunteers were divided into four groups of two, and were refrained from any food overnight.\nThe experiment was repeated four times such, that all the eight volunteers eventually obtained aal the four test substances. During the four hours following the ingestion of the orange juice, blood was taken from the test persons at t=0, 30, 60 90, 120, 180 and 240 minutes after ingestion. CCK analysis was carried out using a radio-immunoassay (RIA) kit of Euro-Diagnostica (cat nr. #RB302) according to the instructions of the manufacturer.",
  "data": [
    {"smiles": "N[C@@H](Cc1c[nH]c2ccccc12)C(=O)O", "note": "[Tryptophan, tryptophan]", "values": [
      {"measurement": "Mean CCK levels in plasma", "setting": "0 minutes after ingestion, oral in 200 ml orange juice (25 g glucose), mean ± spread", "value": "0.64 ± 0.78", "unit": "pmol/L"},
      {"measurement": "Mean CCK levels in plasma", "setting": "30 minutes after ingestion, oral in orange juice", "value": "1.49 ± 1.04", "unit": "pmol/L"},
      {"measurement": "Mean CCK levels in plasma", "setting": "60 minutes after ingestion, oral in orange juice", "value": "1.05 ± 1.06", "unit": "pmol/L"},
      {"measurement": "Mean CCK levels in plasma", "setting": "90 minutes after ingestion, oral in orange juice", "value": "0.83 ± 0.84", "unit": "pmol/L"},
      {"measurement": "Mean CCK levels in plasma", "setting": "120 minutes after ingestion, oral in orange juice", "value": "0.34 ± 0.11", "unit": "pmol/L"},
      {"measurement": "Mean CCK levels in plasma", "setting": "180 minutes after ingestion, oral in orange juice", "value": "0.30 ± 0.00", "unit": "pmol/L"},
      {"measurement": "Mean CCK levels in plasma", "setting": "240 minutes after ingestion, oral in orange juice", "value": "0.30 ± 0.00", "unit": "pmol/L"}
    ]}
  ]
}
